From ChEMBL document CHEMBL1201862, “PubChem BioAssay data set” (2004)
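How tested: cells in 96-well plates exposed to compound for 48 hours at five concentrations. GI50: concentration for 50% inhibition of growth.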 Active and inactive are the calls of the source. No stated cut-off is given here; in the data, active = GI50 up to about 1.1 µM and inactive = higher.

What was measured:
Assay in all cases: inhibition of tumour cell growth, NCI panel, 48 h
T47D = test system: T47D
SK-MEL-28 = test system: SK-MEL-28
SNB-75 = test system: SNB-75
OVCAR-5 = test system: OVCAR-5
RXF 393 = test system: RXF 393
HCT-116 = test system: HCT-116
TK-10 = test system: TK-10
SR = test system: SR
MOLT-4 = test system: MOLT-4
SF-539 = test system: SF-539
OVCAR-8 = test system: OVCAR-8
RPMI-8226 = test system: RPMI-8226
DU-145 = test system: DU-145
SK-MEL-2 = test system: SK-MEL-2
SN12C = test system: SN12C
MDA-MB-231 = test system: MDA-MB-231
OVCAR-3 = test system: OVCAR-3
CCRF-CEM = test system: CCRF-CEM
UACC-62 = test system: UACC-62
MCF7 = test system: MCF7
K562 = test system: K562
MDA-MB-435 = test system: MDA-MB-435
MDA-N = test system: MDA-N
BT-549 = test system: BT-549
COLO 205 = test system: COLO 205
CAKI-1 = test system: CAKI-1
786-0 = test system: 786-0
IGROV-1 = test system: IGROV-1
SW-620 = test system: SW-620
SF-268 = test system: SF-268
SF-295 = test system: SF-295
SK-MEL-5 = test system: SK-MEL-5
PC-3 = test system: PC-3
U-251 = test system: U-251
A549 = test system: A549
NCI/ADR-RES = test system: NCI/ADR-RES
UACC-257 = test system: UACC-257
SK-OV-3 = test system: SK-OV-3
EKVX = test system: EKVX
M14 = test system: M14
HCT-15 = test system: HCT-15
NCI-H23 = test system: NCI-H23
ACHN = test system: ACHN
HCC 2998 = test system: HCC 2998
LOX IMVI = test system: LOX IMVI
KM12 = test system: KM12
Malme-3M = test system: Malme-3M
NCI-H226 = test system: NCI-H226
HOP-92 = test system: HOP-92
HT-29 = test system: HT-29
HOP-62 = test system: HOP-62
HL-60 = test system: HL-60
OVCAR-4 = test system: OVCAR-4
NCI-H522 = test system: NCI-H522
SNB-19 = test system: SNB-19
A498 = test system: A498
UO-31 = test system: UO-31
Hs-578T = test system: Hs-578T
NCI-H460 = test system: NCI-H460

CCOC(=O)COc1cc(-c2ccccc2F)nc2cc3c(cc12)OCO3
GI50 (T47D): 79.8 µM (inactive) | GI50 (SK-MEL-28): > 100 µM (inactive) | GI50 (SNB-75): 59.4 µM (inactive) | GI50 (OVCAR-5): > 100 µM (inactive) | GI50 (RXF 393): > 100 µM (inactive) | GI50 (HCT-116): 72.3 µM (inactive) | GI50 (TK-10): > 100 µM (inactive) | GI50 (SR): > 10 µM (inactive) | GI50 (MOLT-4): 27.8 µM (inactive) | GI50 (SF-539): > 100 µM (inactive) | GI50 (OVCAR-8): > 100 µM (inactive) | GI50 (RPMI-8226): 42 µM (inactive) | GI50 (DU-145): > 100 µM (inactive) | GI50 (SK-MEL-2): > 100 µM (inactive) | GI50 (SN12C): > 100 µM (inactive) | GI50 (MDA-MB-231): > 100 µM (inactive) | GI50 (OVCAR-3): > 10 µM (inactive) | GI50 (CCRF-CEM): 23.2 µM (inactive) | GI50 (UACC-62): > 100 µM (inactive) | GI50 (MCF7): > 100 µM (inactive) | GI50 (K562): 38.1 µM (inactive) | GI50 (MDA-MB-435): > 100 µM (inactive) | GI50 (MDA-N): > 100 µM (inactive) | GI50 (BT-549): > 100 µM (inactive) | GI50 (COLO 205): > 100 µM (inactive) | GI50 (CAKI-1): > 100 µM (inactive) | GI50 (786-0): > 100 µM (inactive) | GI50 (IGROV-1): 90.8 µM (inactive) | GI50 (SW-620): > 100 µM (inactive) | GI50 (SF-268): > 100 µM (inactive) | GI50 (SF-295): > 100 µM (inactive) | GI50 (SK-MEL-5): 71.9 µM (inactive) | GI50 (PC-3): > 100 µM (inactive) | GI50 (U-251): 93.5 µM (inactive) | GI50 (A549): > 100 µM (inactive) | GI50 (NCI/ADR-RES): > 100 µM (inactive) | GI50 (UACC-257): > 100 µM (inactive) | GI50 (SK-OV-3): > 100 µM (inactive) | GI50 (EKVX): 85.5 µM (inactive) | GI50 (M14): > 100 µM (inactive) | GI50 (HCT-15): 39.9 µM | GI50 (NCI-H23): > 100 µM (inactive) | GI50 (ACHN): > 100 µM (inactive) | GI50 (HCC 2998): > 100 µM (inactive) | GI50 (LOX IMVI): 53.7 µM (inactive) | GI50 (KM12): > 100 µM (inactive) | GI50 (Malme-3M): > 100 µM (inactive) | GI50 (NCI-H226): > 100 µM (inactive) | GI50 (HOP-92): 19.7 µM (inactive) | GI50 (HT-29): > 100 µM (inactive) | GI50 (HOP-62): > 100 µM (inactive)

O=C(CNc1cccc(Cl)c1)Nn1c(-c2ccccc2)nc2ccccc2c1=O
GI50 (SK-MEL-28): 8.02 µM (inactive) | GI50 (SNB-75): 3.61 µM (inactive) | GI50 (OVCAR-5): 18.6 µM (inactive) | GI50 (HL-60): 2.95 µM (inactive) | GI50 (HCT-116): 1.77 µM (inactive) | GI50 (TK-10): > 10 µM (inactive) | GI50 (SR): 4.6 µM (inactive) | GI50 (MOLT-4): 1.35 µM (inactive) | GI50 (SF-539): 3.69 µM (inactive) | GI50 (OVCAR-8): 4.34 µM (inactive) | GI50 (RPMI-8226): 10 µM (inactive) | GI50 (DU-145): 16 µM (inactive) | GI50 (OVCAR-4): 3.58 µM (inactive) | GI50 (SN12C): 4.13 µM (inactive) | GI50 (MDA-MB-231): 3.37 µM (inactive) | GI50 (OVCAR-3): 7.1 µM (inactive) | GI50 (CCRF-CEM): 1.58 µM (inactive) | GI50 (NCI-H522): 1.42 µM (inactive) | GI50 (UACC-62): 1.69 µM (inactive) | GI50 (MCF7): 2.04 µM (inactive) | GI50 (SNB-19): 15.7 µM (inactive) | GI50 (K562): 2.66 µM (inactive) | GI50 (MDA-MB-435): 4.2 µM (inactive) | GI50 (MDA-N): 9.59 µM (inactive) | GI50 (BT-549): 2.16 µM (inactive) | GI50 (COLO 205): 3.83 µM (inactive) | GI50 (786-0): 2.77 µM (inactive) | GI50 (IGROV-1): 4.35 µM (inactive) | GI50 (A498): 19.5 µM (inactive) | GI50 (SW-620): 2.47 µM (inactive) | GI50 (SF-268): 4.71 µM (inactive) | GI50 (SF-295): 14.1 µM (inactive) | GI50 (SK-MEL-5): 1.53 µM (inactive) | GI50 (PC-3): 10.2 µM (inactive) | GI50 (U-251): 1.74 µM (inactive) | GI50 (UO-31): 17.2 µM (inactive) | GI50 (A549): 19.7 µM (inactive) | GI50 (UACC-257): 14 µM (inactive) | GI50 (SK-OV-3): 10.8 µM (inactive) | GI50 (EKVX): 17.9 µM (inactive) | GI50 (M14): 2.09 µM (inactive) | GI50 (Hs-578T): 19.2 µM (inactive) | GI50 (NCI-H23): 2.4 µM (inactive) | GI50 (ACHN): 13.6 µM (inactive) | GI50 (HCC 2998): 10.4 µM (inactive) | GI50 (LOX IMVI): 1.21 µM (inactive) | GI50 (KM12): 10.9 µM (inactive) | GI50 (NCI-H226): 13.3 µM (inactive) | GI50 (HOP-92): 2.31 µM (inactive) | GI50 (NCI-H460): 10.5 µM (inactive) | GI50 (HT-29): 5.9 µM (inactive) | GI50 (HOP-62): 14.1 µM (inactive)

O=C(Nc1nc(C23CC4CC(CC(C4)C2)C3)cs1)c1cc2cc([N+](=O)[O-])ccc2oc1=O
GI50 (SK-MEL-28): 75.5 µM (inactive) | GI50 (SNB-75): 20.3 µM (inactive) | GI50 (OVCAR-5): > 100 µM (inactive) | GI50 (HL-60): > 100 µM (inactive) | GI50 (RXF 393): 19.2 µM (inactive) | GI50 (HCT-116): 37 µM (inactive) | GI50 (TK-10): > 100 µM (inactive) | GI50 (SR): 68.4 µM (inactive) | GI50 (MOLT-4): 57.8 µM (inactive) | GI50 (SF-539): > 100 µM (inactive) | GI50 (OVCAR-8): > 100 µM (inactive) | GI50 (RPMI-8226): > 100 µM (inactive) | GI50 (DU-145): 86.7 µM (inactive) | GI50 (OVCAR-4): 17.8 µM (inactive) | GI50 (SN12C): > 100 µM (inactive) | GI50 (MDA-MB-231): 20.9 µM (inactive) | GI50 (OVCAR-3): 73.3 µM (inactive) | GI50 (CCRF-CEM): 55.6 µM (inactive) | GI50 (NCI-H522): > 100 µM (inactive) | GI50 (MCF7): 56.8 µM (inactive) | GI50 (SNB-19): 72.1 µM (inactive) | GI50 (K562): > 100 µM (inactive) | GI50 (MDA-MB-435): 73.8 µM (inactive) | GI50 (MDA-N): > 100 µM (inactive) | GI50 (BT-549): 14.3 µM (inactive) | GI50 (COLO 205): 41 µM (inactive) | GI50 (CAKI-1): > 100 µM (inactive) | GI50 (786-0): 17.7 µM (inactive) | GI50 (IGROV-1): 45.3 µM (inactive) | GI50 (A498): 36.3 µM (inactive) | GI50 (SW-620): 33.6 µM (inactive) | GI50 (SF-268): 26.2 µM (inactive) | GI50 (SF-295): 38.1 µM (inactive) | GI50 (SK-MEL-5): 25.6 µM (inactive) | GI50 (PC-3): 56.9 µM (inactive) | GI50 (U-251): 43 µM (inactive) | GI50 (UO-31): > 100 µM (inactive) | GI50 (A549): 70.5 µM (inactive) | GI50 (NCI/ADR-RES): 35.7 µM (inactive) | GI50 (UACC-257): > 100 µM (inactive) | GI50 (EKVX): 53 µM (inactive) | GI50 (Hs-578T): 20.3 µM (inactive) | GI50 (HCT-15): 85.1 µM | GI50 (NCI-H23): 77.1 µM (inactive) | GI50 (ACHN): 47.3 µM (inactive) | GI50 (HCC 2998): > 100 µM (inactive) | GI50 (LOX IMVI): 47.1 µM (inactive) | GI50 (KM12): > 100 µM (inactive) | GI50 (Malme-3M): 46.2 µM (inactive) | GI50 (NCI-H226): > 100 µM (inactive) | GI50 (HOP-92): 54.8 µM (inactive) | GI50 (NCI-H460): 52.6 µM (inactive) | GI50 (HT-29): 58.1 µM (inactive) | GI50 (HOP-62): 39.7 µM (inactive)
